The values below come from ChEMBL document CHEMBL3507680, “University of Dundee, Gates Library screen for HepG2 cell viability”.

A short description of this data set: Human HepG2 cell viability assay in 384 well format. Format: toxicity, cell-based. On the set-up: dose 125 nL, time 70.5 hour; concentration not given beside the values. Conditions: HepG2 cells, read-out: Inhibition.

Regarding `CS(=O)(=O)Nc1ccc([C@H]2OCC(=O)N[C@@H]2CO)cc1`, the cytotoxicity at 70.5 h came out at 2.21%.
Under `O=C(NC[C@H]1OC[C@@H](NC2CCC(F)(F)CC2)[C@@H]1O)C1CC1` stands -7.04%.
As to `COc1ccc(CN[C@@H]2CO[C@H](CNC(=O)NC(C)C)[C@H]2O)cc1`, the cytotoxicity at 70.5 h is -5.02%.
Consider `CC(C)NC(=O)NC[C@H]1OC[C@@H](NCc2ccccc2O)[C@@H]1O`, for which the cytotoxicity at 70.5 h is -2.12%.
For the compound `CC(C)NC(=O)NC[C@H]1OC[C@@H](NCc2cccs2)[C@@H]1O`, the cytotoxicity at 70.5 h came out at 9.03%.
Under `COc1ccc(S(=O)(=O)N2CCOC[C@H](Oc3cnccn3)C2)cc1` stands -0.146%; under `Cc1cc(C(=O)N2CCOC[C@H](Oc3cnccn3)C2)c(C(F)(F)F)o1`, 2.77%; under `CC(=O)N1CCC(NC2(Cc3cc(C(C)(C)O)on3)COC2)CC1`, -7.16%.
With `O=C(c1ccccn1)N1C[C@@H]2OCC(=O)N(CC3CCCCC3)[C@@H]2C1`, the cytotoxicity at 70.5 h is -6.75%.
For `CC(C)(C)c1coc([C@@H]2COCCN2Cc2cnc3ccccc3c2)n1`, the cytotoxicity at 70.5 h worked out at 0.0852%.
In the case of `COCCN1CCN(C(=O)C[C@@H]2C[C@@H](C(C)C)[C@H](CC#N)C=C2C)CC1` it was 1.71%; in that of `COC(=O)c1cccc2nc([C@H]3CCN(Cc4ccccc4C)C3)oc12`, -14.2%; in that of `FC(F)(F)c1ccc2nc([C@H]3CCN(C4CCCCC4)C3)[nH]c2c1`, 5.15%.
`CCN(CC)C1(Cc2cc(COC)on2)COC1`: the cytotoxicity at 70.5 h was -0.489%.
Turning to `CS(=O)(=O)N1C[C@@H]2OCC(=O)N(CC3CC3)[C@@H]2C1`, the cytotoxicity at 70.5 h is -7.03%.
Regarding `O=C(c1cnccn1)N1C[C@@H]2OCC(=O)N(CC3CCCCC3)[C@@H]2C1`, the cytotoxicity at 70.5 h was -0.096%.
For the compound `O=C1N(Cc2cccnc2)C[C@H]2CN(C3CCOCC3)CCN12`, the cytotoxicity at 70.5 h was -0.196%.
Regarding `O=C(NC[C@H]1OC[C@@H](NC2CCC(F)(F)CC2)[C@@H]1O)c1cccs1`, the cytotoxicity at 70.5 h was -5.94%.
In the case of `c1cncc(O[C@H]2COCCN(Cc3c[nH]c4ccccc34)C2)c1`, the cytotoxicity at 70.5 h came out at 4.1%.
For the compound `O=C1N[C@@H]2CCN(C(=O)C3CCCC3)[C@@H]2C(=O)N1c1ccc(F)cc1`, the cytotoxicity at 70.5 h is -2.52%.
Regarding `Cn1cncc1-c1nnc([C@H]2CCN(Cc3ccc(F)c(F)c3)C2)o1`, the cytotoxicity at 70.5 h is -0.644%.
As to `Cn1cc(CN2C[C@@H](F)[C@@H](OCc3nc4cnccc4[nH]3)C2)cn1`, the cytotoxicity at 70.5 h was -1.11%.
`NC(=O)c1cccc2nc([C@H]3CCN(Cc4ccccn4)C3)[nH]c12`: the cytotoxicity at 70.5 h is -0.598%.
As for `FC(F)(F)c1ccc2nc([C@H]3CCN(C4CCC4)C3)[nH]c2c1`, the cytotoxicity at 70.5 h was -7.81%.
`O=C(NC[C@H]1OC[C@@H](NCc2ccc(F)cc2)[C@@H]1O)N1CCOCC1`: the cytotoxicity at 70.5 h is -8.58%.
In the case of `CC(=O)N1CCC(NC[C@H]2Cn3c(-c4ccccc4)cnc3CO2)CC1`, the cytotoxicity at 70.5 h was -5.76%.
On to `COC(=O)[C@@H]1Cc2ncn(C)c2CN1S(=O)(=O)Cc1ccccc1`, for which the cytotoxicity at 70.5 h is -2.85%.
On to `O=C1CO[C@H](c2ccc(NS(=O)(=O)c3ccccc3)cc2)[C@@H](CO)N1`, for which the cytotoxicity at 70.5 h came to 11.6%.
Consider `CCCNC(=O)C[C@@H]1CCN(C(=O)c2cccnc2)C[C@@H]1CC`, for which the cytotoxicity at 70.5 h was found to be 12.5%.
Regarding `COCC(=O)N1CCN(C(=O)C2CCCCC2)[C@@H](C(=O)OC)C1`, the cytotoxicity at 70.5 h came to 1.64%.
With `COCCNC(=O)[C@H]1CN2CCC1C[C@@H]2Cn1cc(C(C)(C)C)nn1` (stereo partly drawn), the cytotoxicity at 70.5 h is -0.883%.
In the case of `CNCc1cn(C[C@H]2C[C@@H]3CCN2C[C@@H]3C(=O)NC2CCCCC2)nn1` it was -5.79%.
For the compound `COCc1cn(C[C@H]2C[C@@H]3CCN2C[C@@H]3C(=O)N2CCOCC2)nn1`, the cytotoxicity at 70.5 h is -3.96%.
As for `CNCc1cn(C[C@H]2CC3CCN2C[C@@H]3C(=O)Nc2ccccc2)nn1` (stereo partly drawn), the cytotoxicity at 70.5 h is -9.94%.
On to `CC[C@H]1CN2CC[C@H]1C[C@@H]2CNC(=O)Nc1ccc(Br)cc1`, for which the cytotoxicity at 70.5 h was -0.477%.
Turning to `CC[C@H]1CN2CC[C@H]1C[C@@H]2CNC(=O)Nc1cc(OC)cc(OC)c1`, the cytotoxicity at 70.5 h was determined as 0.42%.
With `CC[C@H]1CN2CC[C@H]1C[C@@H]2CNC(=O)Nc1ccccc1`, the cytotoxicity at 70.5 h was -2.2%.
As for `CC(C)(C)CC(=O)N1CC[C@H]2NC(=O)N(Cc3ccccc3)C(=O)[C@H]21`, the cytotoxicity at 70.5 h was -4.69%.
With `O=C(NC[C@H]1C[C@@H]2CCN1C[C@@H]2CN1CCOCC1)Nc1ccsc1`, the cytotoxicity at 70.5 h was -12.4%.
For `CC(=O)NC[C@H]1C[C@@H]2CCN1C[C@@H]2c1cc(-c2cccs2)nn1C`, the cytotoxicity at 70.5 h was -10.2%.
With `CCNC(=O)NC[C@H]1C[C@@H]2CCN1C[C@@H]2c1cc(-c2cccs2)nn1C`, the cytotoxicity at 70.5 h was -3.63%.
Take `Cn1nc(-c2ccccc2)cc1[C@H]1CN2CC[C@H]1C[C@@H]2CNS(C)(=O)=O`: the cytotoxicity at 70.5 h is -6.73%.
On to `CC1CCN(C[C@H]2CN3CC[C@H]2C[C@@H]3CNC(=O)Nc2ccsc2)CC1`, for which the cytotoxicity at 70.5 h is 10.5%.
`CC1CCN(C[C@H]2CN3CC[C@H]2C[C@@H]3CNC(=O)c2ccco2)CC1`: the cytotoxicity at 70.5 h worked out at 19.1%.
As for `O=S(=O)(NC[C@H]1C[C@@H]2CCN1C[C@@H]2CN1CCOCC1)c1ccccc1`, the cytotoxicity at 70.5 h was -0.151%.
For `COc1ccccc1CN1CCC2(CCC(C(=O)N(C)C)O2)CC1` (stereo not drawn), the cytotoxicity at 70.5 h was -8.03%.
Under `CN(C)C(=O)CN1CCC2(CCN(S(=O)(=O)C3CC3)CC2)C1=O` stands -11.2%; under `c1cc(CN2CCC3(CC2)COC(COCC2CC2)C3)cs1` (stereo not drawn), -6.27%; under `Cc1cccc(CN2CCC3(CCC(C(=O)N(C)C)O3)CC2)n1` (stereo not drawn), -9.32%.
In the case of `O=C1CC[C@]2(CC[C@@H](NC(=O)NCc3ccccc3)CC2)N1` it was 15.6%; in that of `CC(=O)N1CCC2(CCCN(S(=O)(=O)c3ccccc3)C2)C1` (stereo not drawn), 20%; in that of `Cc1cc(C(=O)N2CC[C@@H]3CN(CCC(C)C)S(=O)(=O)[C@@H]3CC2)no1`, -2.89%.
In the case of `C[C@H]1C[C@H]2CN(S(=O)(=O)c3ccc(F)cc3)CC[C@@H]2O1` it was -3.04%; in that of `CCCS(=O)(=O)N1C[C@H]2C[C@H](C(=O)N3CCCC3)[C@@H](C1)O2`, -3.05%; in that of `CC(=O)N1CCC2(C1)CN(S(=O)(=O)c1ccccc1)C2`, -7.01%.
For the compound `O=C(Cc1ccc(F)cc1)N1C[C@H]2CCN[C@H]2C1`, the cytotoxicity at 70.5 h was -5%.
In the case of `C[C@H]1C[C@H]2CN(S(=O)(=O)c3ccc(F)cc3)CC[C@H]2O1` it was 13.7%; in that of `N#Cc1ccc(C(=O)N2CCC3(CC2)CC3)cc1`, 4.59%.
For the compound `COCCN1C(=O)CCC12CCCN(C(=O)NC(C)C)CC2` (stereo not drawn), the cytotoxicity at 70.5 h was found to be 7.1%.
Turning to `Cn1cccc1C(=O)N1CCC2(CC1)CN(S(C)(=O)=O)c1ccccc12`, the cytotoxicity at 70.5 h turned out to be 3.63%.
On to `Cc1cc(C(=O)N2CC[C@@H](O)[C@@H]2Cc2ccccc2)no1`, for which the cytotoxicity at 70.5 h is -11.3%.
With `CN1CCN(C(=O)c2n[nH]c3c2CN(C2CCOC2)CC3)CC1` (stereo not drawn), the cytotoxicity at 70.5 h is -10.2%.
Under `Cc1cccc(N2CC3(CCN(S(=O)(=O)c4cccs4)C3)CC2=O)c1` (stereo not drawn) stands -2.22%; under `CC(C)CN1CCC2(CCCNC2)C1=O` (stereo not drawn), -10.9%.
For `O=C1CC2(CCNCC2)C(=O)N1c1cccc(F)c1`, the cytotoxicity at 70.5 h is -0.489%.
In the case of `COc1cccc(N2C(=O)CC3(CCCNC3)C2=O)c1` (stereo not drawn), the cytotoxicity at 70.5 h was -5.35%.
With `COc1cccc(N2C(=O)CC3(CCNCC3)C2=O)c1`, the cytotoxicity at 70.5 h was -4.17%.
Under `CNC(=O)C(C)(C)N1CCC[C@H]1C(=O)NCCN1CCCC1` stands 5.17%; under `CC(=O)N1CCCCC12CCCN(Cc1ccco1)C2` (stereo not drawn), -14.9%; under `CC(C)C(=O)N1CC[C@H]2N(C)CC[C@@]2(C(=O)N2CCOCC2)CC1`, 2.86%.
`O=C(N1CCCC1)N1CC[C@H]2[C@H]1CCN2c1ncccn1`: the cytotoxicity at 70.5 h is -3.91%.
As to `CN1C(=O)CC(c2ccccc2)C12CCN(CC1CC1)CC2` (stereo not drawn), the cytotoxicity at 70.5 h is -11.2%.
With `CCCS(=O)(=O)N1C[C@H]2C[C@H](C(=O)N3CCN(C)CC3)[C@@H](C1)O2`, the cytotoxicity at 70.5 h was 4.46%.
Under `O=C1CC2(CCN(CC3CCOC3)CC2)c2ccccc2N1CC1CC1` (stereo not drawn) stands -1.14%; under `O=C1Nc2ccccc2C12CCN(Cc1cccs1)CC2`, -2.74%; under `Cc1ccc(CN2CCC3(CC2)CCN(C(=O)c2cccn2C)C3)cc1`, -3.29%.
As to `CCN1C(=O)CC[C@]12CC[C@@H](NC(=O)c1ccncc1F)CC2`, the cytotoxicity at 70.5 h was -6.51%.
In the case of `O=C1CC[C@H]2[C@@H](CCN2Cc2ccco2)N1` it was -8.59%.
In the case of `CO[C@H]1CCN(C(=O)Cc2ccsc2)[C@@H]2CN(CC3CC3)C[C@H]12` it was -4.21%; in that of `CN1C(=O)CC(c2ccccc2)C12CCN(CCO)CC2` (stereo not drawn), 2.6%; in that of `O=C(C1CC1)N1CCC2(CCCN2Cc2ccc(F)cc2)CC1`, 5.51%.
With `CC(C)NC(=O)N1CCC2(CCC(=O)N2CCN(C)C)CC1`, the cytotoxicity at 70.5 h was -8.1%.
Consider `O=C1[C@H]2CN(C(=O)[C@H]3CCCO3)C[C@H]2CN1CCN1CCCC1`, for which the cytotoxicity at 70.5 h is -9.56%.
Take `Cc1cccnc1N1CC2(CCN(Cc3cnn(C)c3)C2)C1`: the cytotoxicity at 70.5 h is -10.7%.
Take `CN(C)C[C@H]1C[C@@H]2CN(Cc3ccoc3)C[C@@H]2O1`: the cytotoxicity at 70.5 h is -12.5%.
Under `COCCN1CCC2(CC1)CC(NC(=O)CN(C)C)c1ccccc1O2` (stereo not drawn) stands -6.88%; under `O=C(c1n[nH]c2c1CN(C1CCOC1)CC2)N1CCCC1` (stereo not drawn), -1.72%; under `CN1CCN(C(=O)c2n[nH]c3c2CN(C2CCOCC2)CC3)CC1`, -10.2%.
